Legend:
[1] = target: FLuc-N-HiBiT (firefly luciferase) (Photinus pyralis, UniProt P08659, form not given/L550V); test: SDR assay, FLuc-N-HiBiT; details: for % Activity (max response, + ATP) / % Activity (max response, - ATP) / % Activity (max response): SDR; for % Activity (max response, + ATP) / % Activity (max response, - ATP) / pSDR50 (clade A'): substituted indoline (clade A')
FLuc-C-HiBiT = target: T1, FLuc-C-HiBiT (Photinus pyralis, UniProt P08659); test: biochemical; details: enzyme activity, 10 uM ATP; read-out: IC50 or SDR50 (mM) / FLuc E
T1 construct: firefly luciferase with C-terminal HiBiT tag, E. coli expressed
T1 sequence (P08659 whole entry, looked up): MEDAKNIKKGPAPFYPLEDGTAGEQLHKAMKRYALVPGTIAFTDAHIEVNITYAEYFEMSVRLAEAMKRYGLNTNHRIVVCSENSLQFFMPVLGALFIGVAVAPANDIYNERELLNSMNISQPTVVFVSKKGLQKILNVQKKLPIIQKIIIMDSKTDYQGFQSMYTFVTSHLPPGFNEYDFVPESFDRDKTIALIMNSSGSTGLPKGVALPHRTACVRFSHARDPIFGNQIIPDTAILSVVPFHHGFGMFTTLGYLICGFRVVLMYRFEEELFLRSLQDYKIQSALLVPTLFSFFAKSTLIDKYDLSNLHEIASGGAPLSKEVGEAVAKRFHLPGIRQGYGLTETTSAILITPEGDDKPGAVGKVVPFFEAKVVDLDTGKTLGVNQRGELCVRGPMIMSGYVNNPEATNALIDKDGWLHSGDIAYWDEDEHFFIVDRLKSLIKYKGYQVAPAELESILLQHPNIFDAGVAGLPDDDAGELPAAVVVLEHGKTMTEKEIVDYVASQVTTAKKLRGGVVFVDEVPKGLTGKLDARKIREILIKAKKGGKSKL

PKA-N-HiBiT = PKA-N-HiBiT (Homo sapiens, UniProt P17612); test: SDR assay, PKA-N-HiBiT
[2] = target: T2, ABL1-N-HiBiT kinase domain (Homo sapiens, UniProt P00519); test: SDR assay, ABL1-N-HiBiT; details: ABL1-N-HiBiT qHTS, SDR assay, average maximal response
T2 sequence (P00519 233-500): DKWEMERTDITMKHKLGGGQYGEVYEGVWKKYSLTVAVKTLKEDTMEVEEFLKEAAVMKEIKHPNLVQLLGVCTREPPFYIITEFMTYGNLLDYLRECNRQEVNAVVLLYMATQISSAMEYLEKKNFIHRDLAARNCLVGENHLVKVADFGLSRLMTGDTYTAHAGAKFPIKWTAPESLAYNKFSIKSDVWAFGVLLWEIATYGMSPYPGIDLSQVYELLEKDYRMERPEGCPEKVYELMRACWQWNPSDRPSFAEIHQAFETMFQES

[3] = ATP-independent imidazo[2,1-b]thiazole (clade O) series
[4] = ATP-independent pyrazolo pyrimidine (clade P)

Chain of FLuc-N-HiBiT (firefly luciferase) (P08659 2-550 L550V, form open): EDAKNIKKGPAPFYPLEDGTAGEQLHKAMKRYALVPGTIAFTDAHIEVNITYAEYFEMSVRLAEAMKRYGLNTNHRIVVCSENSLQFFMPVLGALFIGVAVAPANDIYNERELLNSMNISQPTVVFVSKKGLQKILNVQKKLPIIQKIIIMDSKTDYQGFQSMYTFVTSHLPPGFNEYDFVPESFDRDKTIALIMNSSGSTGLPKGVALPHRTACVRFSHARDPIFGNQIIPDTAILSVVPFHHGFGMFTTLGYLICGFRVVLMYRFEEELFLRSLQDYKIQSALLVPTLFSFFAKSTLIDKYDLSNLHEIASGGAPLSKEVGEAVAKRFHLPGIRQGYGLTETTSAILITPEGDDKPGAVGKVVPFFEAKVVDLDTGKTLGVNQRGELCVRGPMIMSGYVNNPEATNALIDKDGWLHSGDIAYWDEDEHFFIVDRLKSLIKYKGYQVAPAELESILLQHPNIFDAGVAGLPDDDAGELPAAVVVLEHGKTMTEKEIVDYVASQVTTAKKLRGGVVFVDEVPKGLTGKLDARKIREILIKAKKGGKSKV

% Activity (max response, + ATP) ([1]; + ATP) [%] | % Activity (max response, - ATP) ([1]; - ATP) [%] | pSDR50 (clade A') ([1]; + ATP) | pSDR50 (clade A') ([1]; - ATP) | IC50 (FLuc-C-HiBiT) [µM] | SMILES | further results
116.90 | 14.79 | 5.19 |  | 3.94 | CN(C)C(=O)c1cccc2c1CCN2C(=O)Nc1ccc(F)cc1 [NCGC00430198-01] | 
119.50 | 23.04 | 6.44 | 2.73 | 0.221 | O=C(NCCc1cccnc1)c1cccc2c1CCN2C(=O)Nc1ccc(F)cc1 [NCGC00430192-01] | 
125.10 | 68.63 | 6.06 | 4.73 | 0.624 | COc1ccc(NC(=O)N2CCc3c(C(=O)NCc4ccncc4)cccc32)cc1 [NCGC00430180-01] | 
131.70 | 51.01 | 4.89 | 4.36 | 4.42 | Cc1ccc(NC(=O)N2CCc3c(C(=O)NCCc4ccccn4)cccc32)cc1 [NCGC00430168-01] | 
108.30 | 19.81 | 5.86 |  | 0.785 | O=C(NCCc1cccs1)c1cccc2c1CCN2C(=O)Nc1ccc(F)cc1 [NCGC00430196-01] | 
127.00 | 89.24 | 7.11 | 5.17 | 0.0495 | Cc1ccc(NC(=O)N2CCc3c(C(=O)NCc4ccco4)cccc32)cc1 [NCGC00430166-01] | 
119.00 | 13.12 | 6.16 |  | 0.556 | COc1ccc(NC(=O)c2cccc3c2CCN3C(=O)Nc2ccc(F)cc2)c(C)c1 [NCGC00430188-01] | 
123.10 | 78.58 | 6.37 | 4.88 | 0.351 | CNC(=O)c1cccc2c1CCN2C(=O)Nc1ccc(C)cc1 [NCGC00430160-01] | 
126.00 | 37.35 | 6.80 | 4.62 | 0.111 | COc1ccc(NC(=O)N2CCc3c(C(=O)N(C)C)cccc32)cc1 [NCGC00430182-01] | 
65.64 | 14.85 | 5.66 |  | 3.94 | O=C(O)c1cccc2c1CCN2C(=O)c1ccccc1 [NCGC00432607-01] | 
19.35 | 9.26 |  |  | > 30 | CCC(=O)N1CCc2c(C(=O)O)cccc21 [NCGC00432605-01] | 
81.35 | 20.90 | 5.89 | 4.16 | 1.76 | O=C(O)c1cccc2c1CCN2C(=O)c1ccc(F)cc1 [NCGC00432675-01] | 

The next lines start with the molecule.

SMILES | % Activity (max response, + ATP) ([1]; + ATP) [%] | % Activity (max response, - ATP) ([1]; - ATP) [%] | pSDR50 (clade A') ([1]; + ATP) | pSDR50 (clade A') ([1]; - ATP) | IC50 (FLuc-C-HiBiT) [µM] | further results
COc1ccc(NC(=O)N2CCc3c(C(=O)NCCN4CCCCCC4)cccc32)cc1 [NCGC00430136-01] | 125.00 | 26.27 | 6.10 | 3.93 | 0.556 | 
Brc1ccc(-c2cn3cc(Cc4ccccc4)sc3n2)cc1 [Compound 36] |  |  |  |  |  | pSDR50 (clade O) [1, 3]: 5.89; % Activity (max response) [1, 3]: 18.18%
c1ccc(-n2ncc3c(N4CCCCC4)ncnc32)cc1 [Compound 373] |  |  |  |  |  | pSDR50 (clade P) [1, 4]: 5.48; % Activity (max response) [1, 4]: 80.68%
Cc1cccc(NC(=O)N2CCc3c(C(=O)NC(C)(C)C)cccc32)c1 [NCGC00430124-01] | 30.08 | 45.88 | 3.69 | 4.31 | 8.81 | 
CCN1CCN(CCNC(=O)c2cccc3c2CCN3C(=O)Nc2ccc(C)cc2)CC1 [NCGC00430114-01] | 125.50 | 93.19 | 5.79 | 4.11 | 1.11 | 
CN(Cc1ccccc1)C(=O)c1cccc2c1CCN2C(=O)Nc1ccccc1 [NCGC00430102-01] | 122.30 | 17.23 | 6.38 | 5.03 | 0.279 | 
O=C(O)c1cccc2c1CCN2C(=O)Nc1ccc(F)cc1 [NCGC00432687-01] | 127.90 | 102.18 | 8.36 | 4.92 | 0.00351 | 
Fc1ccc(-c2cn3cc(Cc4ccccc4Cl)sc3n2)cc1 [Compound 30] |  |  |  |  |  | pSDR50 (clade O) [1, 3]: 5.26; % Activity (max response) [1, 3]: 49.79%
COc1ccc(NC(=O)N2CCc3c(C(=O)NCCCN4CCCC4=O)cccc32)cc1 [NCGC00430130-01] | 129.70 | 57.00 | 6.47 | 4.44 | 0.248 | 
CCC(C)(C)NC(=O)c1cccc2c1CCN2C(=O)Nc1cccc(C)c1 [NCGC00430120-01] | 86.92 | 21.61 | 4.90 | 2.52 | 7.85 | 
Cc1cccc(C)c1-n1c(=O)c2cnc(Nc3ccc(N4CCN(C)CC4)cc3)nc2n2c3ccccc3nc12 [Lck Inhibitor] |  |  |  |  |  | EC50 (PKA-N-HiBiT): 4.57 µM
CC1CCCN(c2ncnc3c2cnn3-c2ccc(Cl)cc2)C1 (stereo not shown) [Compound 383] |  |  |  |  |  | pSDR50 (clade P) [1, 4]: 5.51; % Activity (max response) [1, 4]: 116.20%
Fc1ccccc1Cc1cn2cc(-c3ccc(Cl)cc3)nc2s1 [Compound 6] |  |  |  |  |  | pSDR50 (clade O) [1, 3]: 5.50; % Activity (max response) [1, 3]: 29.23%
CN(Cc1ccco1)C(=O)c1cccc2c1CCN2C(=O)Nc1ccccc1 [NCGC00430106-01] | 117.40 | 20.13 | 6.53 | 2.52 | 0.197 | 
Cc1ccc(Cc2cn3cc(-c4ccccc4)nc3s2)cc1 [Compound 98] |  |  |  |  |  | pSDR50 (clade O) [1, 3]: 5.78; % Activity (max response) [1, 3]: 56.11%
CC(NC(=O)c1cccc2c1CCN2C(=O)Nc1ccccc1)c1cccnc1 (stereo not shown) [NCGC00430104-01] | 120.10 | 19.02 | 5.53 | 4.71 | 1.76 | 
Clc1ccccc1Cc1cn2cc(-c3ccccc3)nc2s1 [Compound 0] |  |  |  |  |  | pSDR50 (clade O) [1, 3]: 5.98; % Activity (max response) [1, 3]: 50.48%
Clc1ccc(-c2cn3cc(Cc4ccccc4)sc3n2)cc1 [Compound 4] |  |  |  |  |  | pSDR50 (clade O) [1, 3]: 5.57; % Activity (max response) [1, 3]: 64.57%
Fc1ccc(Cc2cn3cc(-c4ccc(F)cc4)nc3s2)cc1 [Compound 34] |  |  |  |  |  | pSDR50 (clade O) [1, 3]: 6.28; % Activity (max response) [1, 3]: 22.33%
Fc1ccc(-c2cn3cc(Cc4ccccc4)sc3n2)cc1 [Compound 10] |  |  |  |  |  | pSDR50 (clade O) [1, 3]: 5.73; % Activity (max response) [1, 3]: 39.11%
CC1CCCN(c2ncnc3c2cnn3-c2ccccc2)C1 (stereo not shown) [Compound 381] |  |  |  |  |  | pSDR50 (clade P) [1, 4]: 5.61; % Activity (max response) [1, 4]: 79.86%
CO[C@H]1/C=C/O[C@@]2(C)Oc3c(C)c(O)c4c(O)c(c(/C=N/N5CCN(C6CCCC6)CC5)c(O)c4c3C2=O)NC(=O)/C(C)=C\C=C\[C@H](C)[C@H](O)[C@@H](C)[C@@H](O)[C@@H](C)[C@H](OC(C)=O)[C@@H]1C [Rifapentin] |  |  |  |  |  | EC50 (PKA-N-HiBiT): 16.2 µM
CCCCNC(=O)c1cccc2c1CCN2C(=O)Nc1ccccc1 [NCGC00430146-01] | 123.10 | 25.03 | 5.71 | 5.51 | 1.57 | 
CN(C)CCNC(=O)c1cccc2c1CCN2C(=O)Nc1ccccc1 [NCGC00430150-01] | 120.00 | 17.07 | 5.93 |  | 0.7 | 
Fc1ccc(Cc2cn3cc(-c4ccccc4)nc3s2)cc1 [Compound 2] |  |  |  |  |  | pSDR50 (clade O) [1, 3]: 5.92; % Activity (max response) [1, 3]: 39.94%
Nc1ncc(-c2cnn(CCO)c2)c2scc(-c3ccc(NC(=O)Nc4cccc(F)c4)cc3)c12 [Ilorasertib] |  |  |  |  |  | SDR Ave Max Response [2]: 123.93; SDR Ave Max Response (PKA-N-HiBiT; PKA-N-HiBiT qHTS, average): 5.66
CCOC(=O)C1CCN(C(=O)c2cccc3c2CCN3C(=O)Nc2ccccc2)CC1 [NCGC00430100-01] | 124.90 | 16.28 | 5.52 |  | 1.76 | 
Cc1cccc(NC(=O)N2CCc3c(C(=O)N4CCN(C)CC4)cccc32)c1 [NCGC00430118-01] | 120.00 | 22.45 | 5.59 | 3.92 | 1.76 | 

— paper PMC12064818, “A general assay platform to study protein pharmacology using ligand-dependent structural dynamics” (Nature Communications, 2025)
